Results as given in patent US20100120662A1, “Glucose uptake modulator and method for treating diabetes or diabetic complications” (POSTECH Foundation, priority 2005, published 2010).
Ends that are not written are not given here.

How the values were obtained:
GLUT4 = GLUT4 translocation to the plasma membrane in 3T3-L1 adipocytes; format: cell-based; details: 100 nM insulin, 10 min
Description: Membrane fractionation of adipocytes. For obtaining total membranes (TM) from 3T3-L1 adipocytes, cells were collected into 10 ml of ice-cold HES buffer (250 mM sucrose, 1 mM EDTA, 1 mM phenylmethylsulfonyl fluoride [PMSF], 1 μM pepstatin, 1 μM aprotinin, 1 μM leupeptin, and 20 mM HEPES, pH 7.4) and subsequently homogenized with 30 strokes in a glass Dounce homogenizer at 4° C. After centrifugation at 1,000 g for 5 min at 4° C. to remove unbroken cells, the supernatant was then centrifugated at 212,000 g for 90 min at 4° C. to yield a pellet of total cellular membranes. To obtain the plasma membrane (PM) subcellular fraction from 3T3-L1 adipocytes, differential ultracentrifugation was used as described previously (Perrini, S., et al., Diabetes 53, pp. 41-52, 2004).
Immunoblotting. For preparing total cell lysates, 3T3-L1 adipocytes were washed with Ca^2+/Mg^2+-free PBS and then lysed in the lysis buffer (50 mM HEPES, pH 7.2, 150 mM NaCl, 50 mM NaF, 1 mM Na3VO4, 10% glycerol, 1% Triton X-100). The lysates were centrifuged at 15,000 rpm for 15 min at 4° C. […]
FIGS. 3A and 3B show LPC stimulates GLUT4 translocation in 3T3-L1 adipocytes. […] In each experiment, the relative increase or decrease in the integrated density value (IDV) of GLUT4 after stimulation with compounds is calculated. B) Quantitation of relative increases is depicted. […]

IRS1 and AKT = IRS1 and AKT phosphorylation in 3T3-L1 adipocytes (immunoblot); format: cell-based; details: 10 nM insulin
Description: Immunoblotting. For preparing total cell lysates, 3T3-L1 adipocytes were washed with Ca^2+/Mg^2+-free PBS and then lysed in the lysis buffer (50 mM HEPES, pH 7.2, 150 mM NaCl, 50 mM NaF, 1 mM Na3VO4, 10% glycerol, 1% Triton X-100). The lysates were centrifuged at 15,000 rpm for 15 min at 4° C. The proteins were denatured by boiling in laemmli sample buffer for 5 min at 95° C., separated by SDS-PAGE. SDS-gel was transferred to nitrocellulose membrane using Hoefer wet transfer system. Membranes were blocked in TTBS (20 mM Tris-HCl, pH 7.6, 150 mM NaCl, 0.05% Tween 20) containing 5% skimmed milk powder for 30 min and then incubated with antibodies for 3 hours. After washing membranes several times with TTBS, the blots were incubated with HRP (Horseradish peroxidase)-conjugated goat anti-rabbit for 1 hour. The blots were washed with TTBS and developed by ECL.

insulin receptor (IR) [1] = assay: IR autophosphorylation in hIRcB cells; format: cell-based, human
Description: FIG. 12A shown a comparison of insulin sensitizing effect among CRF family which was obtained by incubating cells with 1 μM CRF family and/or 2 nM insulin or with medium alone for 1 min. […] FIG. 12B was obtained by incubating cells with 2 nM insulin and variant dose of UCN (from 2 nM to 1 μM) for 1 min. FIG. 12C was obtained by incubating cells 100 nM UCN and variant dose of insulin for 1 min. Phosphorlyation of IR was assessed by western blotting with anti-pTyr antibodies. FIG. 13D was obtained by incubating cells with 100 nM UCN and/or 10 nM insulin for 0, 2, 10, 30, and 60 min, and then assessing the phosphorlyation of IR by western blotting with anti-pIR antibodies. Quantization of IR autophosphorylation was measured with image gauge software (Fuji film). The values are the mean±S.E. for three experiments. *, P<0.05
hIRcB cells were maintained in DMEM, supplemented with 10% (v/v) FBS. The cells were grown at 37° C. in a humidified atmosphere of 5% CO2 and 95% air.
After treatment of ligands as indicated time and dose, the cells were washed with cold PBS and lysed with lysis buffer (50 mM HEPES pH 7.5, 150 mM NaCl, 1%
Triton X-100, 1 mM EDTA, 10% glycerol) containing protease inhibitors (0.5 mM PMSF, 1 μg/ml leupeptin and 5 μg/ml aprotinin) and phosphatase inhibitors (30 mM NaF, 1 mM Na3VO4 and 30 mM Na4O7P2). The cell lysates were incubated for 1 hr at 4° C. After centrifugation (14,000×g for 15 min), equal amounts of soluble extract were incubated, for 4 hrs, with 5 μg of anti-IR antibody and 30 μl of resin volume of immobilized protein A. For gel electrophoresis, the precipitates were dissolved in Laemmli sample buffer. The sample was separated by SDS-PAGE and transferred to a nitrocellulose membrane (Schleicher and Schuell, BA85). Blocking was performed with TTBS buffer (10 mM Tris/HCl, pH 7.5, 150 mM NaCl, and 0.05% Tween 20) containing 5% skimmed milk powder. The membrane was probed with primary for 3 hrs at room temperature. Subsequently the immunoblot was washed and incubated with horseradish peroxidase-linked secondary antibody for 1 hr at room temperature, rinsed four times in TTBS buffer, and developed with horseradish peroxidase-dependent chemiluminescence reagents (Amersham International, United Kingdom).

C2C12 myotubules = assay: Glucose uptake in C2C12 myotubules (UCN); format: cell-based; details: in the presence of UCN
Description: (§1) UCN enhanced insulin-induced glucose uptake and phosphorylation of IR, IRS and Akt. Myotubules were incubated with 2 nM UCN and/or variant insulin dose (0-50 nm) for 1 min (Inserted immunoblot data). Phosphorylation of IRS and Akt was assessed by western blot analysis with anti-pIRS and anti-pAkt antibodies. Glucose uptake was determined as below.
(§2) C2C12 cells were maintained in DMEM, supplemented with 10% (v/v) FBS. The cells were grown at 37° C. in a humidified atmosphere of 5% CO2 and 95% air. For the differentiation of C2C12 cells, growing media was changed to DMEM, supplemented with 2% (v/v) ES and cultured for 7 days.
After differentiation, cells were washed and incubated during 3 hrs with 2 ml Krebs-Ringer phosphate (KRP) containing 130 mM NaCl, 5 mM KCl, 1.3 mM CaCl2.2H2O, 1.3 mM MgSO4.7H2O, and 10 mM Na2HPO4.7H2O, pH 7.4. To determine the effect of UCN on glucose uptake, 10 min incubation in 1 ml of KRP at indicated conditions was carried out. The reaction was performed by adding a mixture of [^14C] 2-DG (1 μCi/ml) and non-radioactive 2-DG (final concentration of 20 mM) for 10 min. […] Cell-associated radioactivity was determined by lysing the cells in 1 N NaOH and followed by scintillation counting. Non-specific uptake was measured by incubating the cells with cytochalasin B (20 μM/ml). […]

IR, IRS and Akt = assay: Phosphorylation of IR, IRS and Akt in C2C12 myotubules; format: cell-based
Description: as §1, §2
Immunoprecipitation and immunoblot was performed according to the method of EXAMPLE 8.

ICR mice = assay: Blood glucose in normal ICR mice after intravenous UCN; format: in vivo, mouse; details: i.v.
Description: (§3) The inserted immunoblot data is about IR phosphorylation by UCN in skeletal muscle. Mice were injected (intravenously) with either vehicle (0.1% BSA in saline) or UCN (0.1-100 μM). Values are the mean±S.D. for four control and four UCN-treated mice. […] The inserted immunoblot data was about IR phosphorylation by treatment of UCN in skeletal muscle of STZ mouse. Mice were injected (intravenously) with vehicle (0.1% BSA in saline), UCN (0.1 μM) and/or insulin (1 nM). And plasma levels of glucose were measured during 45 min. Values are the mean±S.D. for six mice each group. *, P<0.05.
For prepare the normal test animal, male Institute of Cancer Research (ICR) mice weighing 20-25 g, aged 8 weeks, were obtained from the Hyochang Science were housed four to cage in a temperature- and light-controlled room (20-22° C.; 12-hrs light, 12-hrs dark cycle; lights on at 07:00 hr) and were provided with regular diet chow and water ad libitum. The laboratory procedures used conformed to the guidelines of the Korea Government Guide for the Care of Use of Laboratory Animals. In the in vivo study, after fasting overnight, mice were injected to intravenous vein with 0.1% BSA saline or UCN, then plasma glucose was measured on a time by glucose analyzer (model AGM-2100, allmedicus Inc., anyang, Korea)

STZ-mouse = assay: Blood glucose in STZ mice after intravenous UCN and/or insulin; format: in vivo
Description: as §3
For preparing STZ-mouse, male Institute of Cancer Research (ICR) mice weighing 20-25 g, aged 8 weeks, were obtained from the Hyochang Science. STZ-induced diabetic mice were prepared by administering an intraperineal injection of STZ (Sigma Chemical, St. Louis, Mo.) (75 mg/kg) to male ICR mice after the animals were fasted for 1 day. And the next day had one more injection of STZ. Mice with plasma glucose concentrations ≧280 mg/dl were considered to have type 1 diabetes. All tests were carried out 3 days after the injection of STZ.

insulin receptor (IR) [2] = assay: IR phosphorylation in mouse skeletal muscle; format: in vivo; details: soleus muscle, 15 min after i.v. injection
Description: After fasting overnight, mice were injected iv with agonist. After 15 min, mice were killed by soleus muscles were rapidly excised and were immediately frozen in liquid nitrogen. Lysates were prepared by homogenizing the tissues in lysis buffer (50 mM HEPES pH 7.5, 150 mM NaCl, 1% Triton X-100, 1 mM EDTA, 10% glycerol) containing protease inhibitors (0.5 mM PMSF, 1 μg/ml leupeptin and 5 μg/ml aprotinin) and phosphatase inhibitors (30 mM NaF, 1 mM Na3VO4 and 30 mM Na4O7P2). Debris was removed by centrifugation at 14,000 rpm for 10 min at 4° C. Immunoprecipitation and Western blots were performed as previously described.

Substance: insulin [reference compound]
- GLUT4 translocation (GLUT4): stimulate GLUT4 translocation
- phosphorylation of IRS1 and AKT (IRS1 and AKT): augmentation of IRS1 and AKT phosphorylation

Substance: urocortin (DNPSLSIDLTFHLLRTLLELARTQSQRERAEQNRIIFDSV; ends and bridges not checked; UniProt P55089 83-122, looked up) [UCN, a 40 amino acid peptide as a member of the corticotrophin release factor (CRF) family]
- insulin-mediated IR phosphorylation (insulin receptor (IR) [1]; 1 μM CRF family peptide with 2 nM insulin, 1 min, hIRcB cells): potentate insulin-mediated IR phosphorylation
- dose and time dependence of insulin sensitizing effect (insulin receptor (IR) [1]; UCN 2 nM to 1 μM with 2 nM insulin, 100 nM UCN with 10 nM insulin 0-60 min): increased in dose (12B,12C) and time (12D) dependent manner
- potency in potentiating insulin-mediated IR phosphorylation compared with CRF (insulin receptor (IR) [1]; hIRcB cells): more potent
- IR phosphorylation by peptide alone (insulin receptor (IR) [1]; without insulin, hIRcB cells): no effect on IR phosphorylation
- insulin-stimulated glucose uptake (C2C12 myotubules): significantly increased
- insulin-induced phosphorylation of IR, IRS and Akt (IR, IRS and Akt; 2 nM UCN and/or insulin 0-50 nm, 1 min): enhanced
- insulin-induced phosphorylation of IR (IR, IRS and Akt; in the presence of UCN, C2C12 myotubules): enhanced
- blood glucose level, UCN alone (ICR mice; 0.1 μM UCN): down-regulated the blood glucose level
- blood glucose level, UCN alone (ICR mice; from 100 pM up): enhanced blood glucose level
- change of blood glucose level, UCN alone (STZ-mouse; UCN (0.1 μM) i.v., 45 min): no effect on the change of blood glucose level
- blood glucose level, UCN co-injected with insulin (STZ-mouse; UCN co-injected with inactive concentration of insulin (1 nM)): significantly decreased
- insulin-induced IR phosphorylation in mouse skeletal muscle (insulin receptor (IR) [2]): significantly sensitized insulin-induced IR phosphorylation
